Results reported in PubChem BioAssay (NCI).
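Protocol summary: plate cells (96-well), add compound at 5 concentrations, incubate 48 h, interpolate endpoints linearly. At the TGI there is no net growth.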

What was measured:
Test in all cases: NCI anticancer screen, dose series, 48 h
786-0 renal = tested on: 786-0 renal
DMS 273 small cell lung = tested on: DMS 273 small cell lung
HOP-18 NSCLC = tested on: HOP-18 NSCLC
KM20L2 colon = tested on: KM20L2 colon
LXFL 529 NSCLC = tested on: LXFL 529 NSCLC
M19-MEL melanoma = tested on: M19-MEL melanoma
SNB-78 CNS = tested on: SNB-78 CNS
XF 498 CNS = tested on: XF 498 CNS
BT-549 breast = tested on: BT-549 breast
MDA-MB-231 breast = tested on: MDA-MB-231 breast
T-47D breast = tested on: T-47D breast

Measured: TGI

CN(C)CCC1(C2=CCCC2)CC/C(=C\c2ccc(Cl)cc2)C1=O (centres undefined)
19.1 µM: XF 498 CNS
13.3 µM: M19-MEL melanoma
21.4 µM: LXFL 529 NSCLC
7.82 µM: KM20L2 colon
26.9 µM: SNB-78 CNS
24.8 µM: DMS 273 small cell lung | HOP-18 NSCLC
15.2 µM: 786-0 renal

COc1ccc(C2=C(Cl)c3cc(OC)c(OC)cc3C2Cl)cc1 (centres undefined)
49.3 µM: SNB-78 CNS
15.6 µM: BT-549 breast
28.6 µM: 786-0 renal
35.8 µM: M19-MEL melanoma
36.6 µM: MDA-MB-231 breast
30.5 µM: KM20L2 colon
53.5 µM: HOP-18 NSCLC
39.5 µM: DMS 273 small cell lung
28.4 µM: LXFL 529 NSCLC
35.1 µM: T-47D breast

CCCC1=C(CC)C(C(=O)Nc2c(C)cccc2C)=NC(S)N1 (centres undefined)
not listed: BT-549 breast | MDA-MB-231 breast | T-47D breast
> 100 µM: all other assays above

COC(=O)C12CC3CC(CC(C(=O)O)(C3)C1)C2
not listed: BT-549 breast | MDA-MB-231 breast | T-47D breast
> 100 µM: all other assays above

CCOC(=O)C1SC(=Nc2ccc(C)c(C)c2)N=C1C (centres undefined)
not listed: SNB-78 CNS | BT-549 breast | MDA-MB-231 breast | T-47D breast
> 100 µM: all other assays above

O=C(O)CNS(=O)(=O)c1ccc(NC(=O)c2ccc([N+](=O)[O-])cc2)cc1
not listed: SNB-78 CNS | BT-549 breast | MDA-MB-231 breast | T-47D breast
> 100 µM: all other assays above

CC1=[N+]([O-])c2ccccc2C(=O)C1=O
not listed: BT-549 breast | MDA-MB-231 breast | T-47D breast
> 100 µM: all other assays above

CCCCCCCCCCCCCCCC(=O)OCC(C[As](=O)(O)O)OC(=O)CCCCCCCCCCCCCCC (centres undefined)
70.9 µM: XF 498 CNS
80.8 µM: SNB-78 CNS
> 100 µM: all other assays above

O=C1C2C3C=C4c5ccccc5N(c5ccccc5)C4(C2C(=O)N1c1ccc([N+](=O)[O-])cc1)[C@H]1C(=O)N(c2ccc([N+](=O)[O-])cc2)C(=O)[C@@H]31 (some centres undefined)
> 100 µM: 786-0 renal | DMS 273 small cell lung | HOP-18 NSCLC | KM20L2 colon | M19-MEL melanoma | SNB-78 CNS

CNC(=S)/N=C(\N)N(C)C
not listed: BT-549 breast | MDA-MB-231 breast | T-47D breast
> 100 µM: all other assays above

Clc1cc(Cl)c2ns[s+]c2c1Cl
14.8 µM: SNB-78 CNS
not listed: BT-549 breast | MDA-MB-231 breast | T-47D breast
> 100 µM: all other assays above

O=C(c1cccc2ccccc12)N1CCC(C2CCN(C(=O)c3cccc4ccccc34)CC2)CC1
not listed: BT-549 breast | MDA-MB-231 breast | T-47D breast
> 100 µM: all other assays above

COc1ccc(CN2CC(C)(C)C2=O)c(OC)c1
not listed: LXFL 529 NSCLC | BT-549 breast | MDA-MB-231 breast | T-47D breast
> 100 µM: all other assays above
